“And” between values parts separate entries of the source, which are not always exact repeats. Equal entries are not always repeated.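 Each compound was tested at five concentrations against cells in 96-well plates for 48 hours. At the GI50, growth is halved. At the TGI there is no net growth.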
Key:
Experiment in all cases: NCI anticancer screen, dose series, 48 h
[1] = tested on: M19-MEL melanoma
[2] = tested on: K-562 leukemia
[3] = tested on: KM20L2 colon
[4] = tested on: DMS 114 small cell lung
[5] = tested on: OVCAR-4 ovarian
[6] = tested on: SNB-78 CNS
[7] = tested on: 786-0 renal
[8] = tested on: HOP-18 NSCLC
[9] = tested on: DLD-1 colon
[10] = tested on: MDA-MB-435
[11] = tested on: PC-3 prostate

Work on `O=c1c2ccccc2c2nc3ccccc3nc2n1C1CCCCC1` yielded a TGI [1] greater than 100 µM, a TGI [2] greater than 100 µM and a TGI [3] greater than 100 µM. For the same compound, the TGI [4] was greater than 100 µM, the TGI [5] was greater than 100 µM and the TGI [6] was greater than 100 µM. The TGI [7] was greater than 100 µM.
For `COc1ccc(C(c2c(O)c3ccccc3n(C)c2=O)c2c(O)c3ccccc3n(C)c2=O)cc1`, the TGI [1] was greater than 100 µM, the TGI [8] was greater than 100 µM and the TGI [2] was greater than 100 µM. The TGI [3] was 45.7 µM, the TGI [4] was greater than 100 µM and the TGI [9] was greater than 100 µM. For the same compound, the TGI [5] was greater than 100 µM, the TGI [6] was 67.5 µM and the TGI [7] was greater than 100 µM.
Work on `CS(=O)(=O)Nc1ccc(Nc2c3ccccc3nc3ccccc23)cc1` yielded a TGI [1] of 15 µM, a TGI [8] of 15 µM and a TGI [10] of 33.7 µM. The TGI [2] was 21.2 µM, the TGI [3] was 18.8 µM and the TGI [4] was 17 µM. The TGI [9] was 24.7 µM, the TGI [11] was 19.3 µM and the TGI [5] was 17.4 µM. For the same compound, the TGI [6] was 28.7 µM and the TGI [7] was 17.8 µM.
`COc1ccc2nc3ccccc3c(NCCCCCCN(C)CCCl)c2c1` gave a TGI [1] of 1.65 µM, a TGI [3] of 2.54 µM and a TGI [4] of 1.69 µM. The TGI [5] was 3.03 µM, the TGI [6] was 4.79 µM and the TGI [7] was 1.53 µM.
`CN(C)CC1(C)CC/C(=C\c2ccccc2)C1=O` (stereo unspecified) showed a TGI [1] greater than 100 µM, a TGI [8] greater than 100 µM and a TGI [2] greater than 100 µM. For the same compound, the TGI [3] was greater than 100 µM, the TGI [4] was greater than 100 µM and the TGI [9] was greater than 100 µM. The TGI [5] was greater than 100 µM, the TGI [6] was greater than 100 µM and the TGI [7] was greater than 100 µM.
`N#CCCN(c1ccc(-c2nnc(NC(=O)CNNC(=O)CC(=O)Nc3ccccc3)s2)cc1)S(=O)(=O)c1ccccc1` was tested, and the TGI [1] was greater than 100 µM, the TGI [8] was greater than 100 µM and the TGI [2] was greater than 100 µM. For the same compound, the TGI [4] was greater than 100 µM, the TGI [9] was greater than 100 µM and the TGI [5] was greater than 100 µM. It also gave a TGI [7] greater than 100 µM.
`Cc1cc(Cl)ccc1N=C1NC(=O)C(CC(=O)Nc2ccc(Cl)cc2Cl)S1` (stereo unspecified) showed a TGI [1] greater than 100 µM, a TGI [2] greater than 100 µM and a TGI [3] greater than 100 µM. It also gave a TGI [4] greater than 100 µM, a TGI [9] greater than 100 µM and a TGI [5] greater than 100 µM. For the same compound, the TGI [6] was greater than 100 µM and the TGI [7] was greater than 100 µM.
`CN(C)CCNC(=O)c1cccc2[nH]c(-c3ccccc3)nc12` gave a TGI [1] of 33.5 µM, a TGI [8] of 46.1 µM and a TGI [2] greater than 100 µM. It also gave a TGI [4] of 32.3 µM, a TGI [9] of 39.2 µM and a TGI [5] of 82.5 µM. For the same compound, the TGI [6] was greater than 100 µM and the TGI [7] was greater than 100 µM.
`CC12CCC[C@@](C)(C(=O)OC3OC(CO)C(O)C(O)C3O)[C@H]1CCC13CC4CC(OC4(CO)[C@H]1O)[C@@H]23` (stereo partly specified) gave a TGI [1] greater than 100 µM, a TGI [8] greater than 100 µM and a TGI [2] greater than 100 µM. The TGI [3] was greater than 100 µM, the TGI [4] was 87.9 µM and the TGI [9] was greater than 100 µM. The TGI [5] was greater than 100 µM, the TGI [6] was greater than 100 µM and the TGI [7] was greater than 100 µM.
For `Cc1ccccc1CN1CC=c2ccccc2=N1`, the TGI [1] was greater than 100 µM, the TGI [8] was greater than 100 µM and the TGI [2] was greater than 100 µM. The TGI [3] was greater than 100 µM, the TGI [4] was greater than 100 µM and the TGI [9] was greater than 100 µM. The TGI [5] was greater than 100 µM, the TGI [6] was greater than 100 µM and the TGI [7] was greater than 100 µM.
`O=C(NO)C12C3C4C1C1C2C3C41C(=O)NO` (stereo unspecified) was tested, and the TGI [1] was greater than 100 µM, the TGI [8] was greater than 100 µM and the TGI [2] was greater than 100 µM. For the same compound, the TGI [3] was greater than 100 µM, the TGI [4] was greater than 100 µM and the TGI [9] was greater than 100 µM. The TGI [6] was greater than 100 µM and the TGI [7] was greater than 100 µM.
`OCC12C3C4C1C1C2C3C41CO` (stereo unspecified) was tested, and the TGI [1] was greater than 100 µM, the TGI [8] was greater than 100 µM and the TGI [2] was greater than 100 µM. For the same compound, the TGI [3] was greater than 100 µM, the TGI [4] was greater than 100 µM and the TGI [9] was greater than 100 µM. It also gave a TGI [5] greater than 100 µM, a TGI [6] greater than 100 µM and a TGI [7] greater than 100 µM.
Compound `NC1=N/C(=C2/CCNC(=O)c3[nH]c(Br)cc32)C(=O)N1` has a TGI [1] greater than 100 µM, a TGI [8] greater than 100 µM and a TGI [10] greater than 55.5 µM. It also gave a TGI [2] greater than 100 µM, a TGI [3] greater than 100 µM and a TGI [4] greater than 100 µM. For the same compound, the TGI [9] was greater than 100 µM, the TGI [11] was greater than 100 µM and the TGI [5] was 46.4 µM and 40.5 µM. It also gave a TGI [6] greater than 100 µM and a TGI [7] greater than 61.4 µM.
`Nc1nc2nc[nH]c2c(=O)[nH]1` was tested, and the TGI [1] was greater than 100 µM, the TGI [8] was greater than 100 µM and the TGI [2] was greater than 100 µM. The TGI [3] was greater than 100 µM, the TGI [9] was greater than 100 µM and the TGI [5] was greater than 100 µM. The TGI [6] was greater than 100 µM and the TGI [7] was greater than 100 µM.
For `CO[C@@H]1[C@H](OC(=O)NC(=O)CCl)CC[C@]2(CO2)[C@H]1[C@@]1(C)O[C@@H]1CC=C(C)C`, the GI50 [1] was 1.17 µM, the TGI [1] was 24.2 µM and the GI50 [10] was 5.68 µM. For the same compound, the TGI [10] was 29.3 µM and 36.8 µM, the GI50 [2] was 32.7 µM and the TGI [2] was 58.5 µM and 129 µM. The TGI [3] was 41.5 µM, the GI50 [4] was 2.17 µM and the TGI [4] was 23.4 µM. For the same compound, the GI50 [9] was 5.1 µM, the TGI [9] was 42 µM and the GI50 [11] was 25.3 µM. For the same compound, the TGI [11] was 28.6 µM and 57.2 µM, the GI50 [5] was 25.9 µM and the TGI [5] was 39.1 µM and 176 µM. For the same compound, the TGI [7] was 30 µM and 47.7 µM.
`COC(=O)C1=C(CO)C2C=CC1C2` (stereo unspecified) gave a TGI [1] greater than 100 µM, a TGI [8] greater than 100 µM and a TGI [2] greater than 100 µM. For the same compound, the TGI [3] was greater than 100 µM, the TGI [9] was greater than 100 µM and the TGI [5] was greater than 100 µM. It also gave a TGI [6] greater than 100 µM and a TGI [7] greater than 100 µM.
In the case of `CC(C)=CC(=O)Cc1nc2cc(C)c(C)cc2[nH]c1=O`, the TGI [1] is reported as greater than 100 µM, the TGI [8] is reported as greater than 100 µM and the TGI [2] is reported as greater than 100 µM. The TGI [3] was greater than 100 µM, the TGI [9] was greater than 100 µM and the TGI [5] was greater than 100 µM. The TGI [6] was greater than 100 µM and the TGI [7] was greater than 100 µM.
